# Source: ChEMBL document CHEMBL6120986, “In silico inspired design of urea noscapine congeners as anticancer agents: Chemical synthesis and experimental evaluation using breast cancer cells and a xenograft mouse model” (Eur J Med Chem, 2025)
# Tests used:
# [1] = tested on: MDA-MB-231; test: Antiproliferative activity against human MDA-MB-231 cells assessed as inhibition of cell proliferation incubated for 72 hrs by SRB assay; type: functional, cell-based; conditions: MDA-MB-231, 72 h
# [2] = Cytotoxicty against HEK cells incubated for 72 hrs by SRB assay; type: toxicity, cell-based; conditions: human
# [3] = tested on: MCF7; test: Antiproliferative activity against human MCF7 cells assessed as inhibition of cell proliferation incubated for 72 hrs by SRB assay; type: functional, cell-based; conditions: MCF7, 72 h
IC50 [1],IC50 [3],Compound,IC50 at 72 h [2]
35.2 µM,32.7 µM,COc1ccc2c(c1OC)C(=O)O[C@@H]2[C@H]1c2c(c(NC(=O)Nc3ccc(F)c(Cl)c3)c3c(c2OC)OCO3)CCN1C,285 µM
33.2 µM,29.5 µM,COc1ccc2c(c1OC)C(=O)O[C@@H]2[C@H]1c2c(c(NC(=O)Nc3cccc(C(C)=O)c3)c3c(c2OC)OCO3)CCN1C,306 µM
20.4 µM,17.5 µM,COc1ccc(NC(=O)Nc2c3c(c(OC)c4c2OCO4)[C@H]([C@H]2OC(=O)c4c2ccc(OC)c4OC)N(C)CC3)c(OC)c1,306 µM
54 µM,39.7 µM,COc1ccc2c(c1OC)C(=O)O[C@@H]2[C@H]1c2c(cc3c(c2OC)OCO3)CCN1C [NOSCAPINE],229 µM
